Test system: clinically stable subjects with schizophrenia
Assay: Clinical Study A (Phase 2a, placebo-controlled): MATRICS Consensus Cognitive Battery (MCCB)
Type: in vivo, human
Excerpt: A Phase 2a proof-of-concept (POC) study in clinically stable subjects with schizophrenia who were clinically stable and received stable doses of atypical antipsychotic therapy. The study was a Phase 2, multi-center, randomized, double-blind, placebo-controlled, parallel group study designed to evaluate the safety and efficacy of doses of (4s)-4-(5-phenyl-1,3,4-thiadiazol-2-yloxy)-1-azatricyclo[3.3.1.1^3,7]decane (Compound A) in clinically stable male and female subjects (ages 20 to 55, inclusive) with a Diagnostic and Statistical Manual of Mental Disorders Fourth Edition, Text Revision (DSM-IV-TR) diagnosis of schizophrenia. Psychiatric diagnoses were confirmed using the Mini-International Neuropsychiatric Interview (MINI) version 6.0.0. The criteria for clinical stability was determined by a combination of retrospective data (over the 4 months prior to the start of Screening, which will be supported by clinical records, patient, identified responsible contact person, and physician interviews), and prospective data assessed during the Prospective Stabilization Period of 28 to 42 days duration.
The study was a Phase 2, multi-center, randomized, double-blind, placebo-controlled, parallel group study designed to evaluate the safety and efficacy of doses of (4s)-4-(5-phenyl-1,3,4-thiadiazol-2-yloxy)-1-azatrieyclo[3.3.1.1^3,7]decane, which is also recognized as Compound A, in treating cognitive deficits in subjects with schizophrenia who were clinically stable and receiving one or two atypical antipsychotic medications. Study drug was administered orally.
The study consisted of a screening period of at least 28 and up to 42 days, a 84-day outpatient treatment period, a 14-day post-treatment period, and a post-treatment follow-up period. The screening period consisted of three visits: Screening Visit 1, Screening Visit 2, and Day −1. Upon completion of Day −1 procedures, eligible subjects were randomized through an Interactive Voice Response/Interactive Web-Based (IVR/IWB) system. Subjects were randomized in an equal ratio to one of three treatment groups (placebo, 10 mg Compound A, or 25 mg Compound A).
Subjects were randomized in a 1:1:1 ratio with placebo, 10 mg QD Compound A, of 25 mg Compound A. Each subject was instructed to take study drug once-daily in the morning for 12 weeks. Each daily dose was preferably taken with food. The subject and investigator were blinded to the treatment assignment throughout the study. The treatment assignments for the study subjects are shown below in Table 1.
The primary endpoint was the MCCB composite score, and the primary endpoint analysis was the change on the MCCB composite score from baseline to endpoint versus placebo. Other secondary measures included the MCCB domains, the NSA-16, the CANTAB cognition battery (measured at different time points from the MCCB), and the UPSA-2. The Positive and Negative Syndrome Scale (PANSS) was included to document stability in schizophrenia symptomatology.
The MCCB was developed by a consortium of academic, industry, the Food and Drug Administration (FDA) and National Institute of Mental Health ([…]) members called Measurement and Treatment Research to Improve Cognition in Schizophrenia (MATRICS). The battery was established in a multiple phase process that involved experts identifying cognitive tests in the literature that had shown deficits in schizophrenia, use of factor analysis to identify key domains of cognitive deficits in schizophrenia, and then empirically identifying the best tests for each domain based on reliability, validity and feasibility for use in clinical trials. The FDA has endorsed the MCCB as an appropriate outcome measure for Phase 3 CDS trials. […]

[1] = 25 mg QD, Change to Week 2, ITT
[2] = 25 mg QD, Change to Week 6, ITT
[3] = 25 mg QD, Change to Week 12, ITT

c1ccc(-c2nnc(O[C@@H]3C4CC5C[C@H]3C[N@](C5)C4)s2)cc1 [Compound A, (4s)-4-(5-phenyl-1,3,4-thiadiazol-2-yloxy)-1-azatricyclo[3.3.1.1^3,7]decane]
MCCB Reasoning and Problem Solving: LS Mean (SE) of Change from Baseline [1]: 1.95 (0.92) T-score | MCCB Reasoning and Problem Solving: Observed Mean (SD) of change from baseline [1]: 2.00 (6.25) T-score | MCCB Attention/Vigilance: Difference from Placebo LS Mean (SE) of Difference [2]: 1.71 (1.41) T-score | MCCB Attention/Vigilance: LS Mean (SE) of Change from Baseline [2]: 0.91 (1.06) T-score | MCCB Attention/Vigilance: Observed Mean (SD) of change from baseline [2]: 1.09 (9.04) T-score | MCCB Reasoning and Problem Solving: Difference from Placebo LS Mean (SE) of Difference [2]: 2.22 (1.08) T-score | MCCB Reasoning and Problem Solving: LS Mean (SE) of Change from Baseline [2]: 2.18 (0.81) T-score | MCCB Reasoning and Problem Solving: Observed Mean (SD) of change from baseline [2]: 2.11 (7.06) T-score | MCCB Social Cognition: Difference from Placebo LS Mean (SE) of Difference [2]: −1.21 (1.40) T-score | MCCB Social Cognition: LS Mean (SE) of Change from Baseline [2]: 0.30 (1.05) T-score | MCCB Social Cognition: Observed Mean (SD) of change from baseline [2]: 0.06 (8.00) T-score | MCCB Speed of Processing: Difference from Placebo LS Mean (SE) of Difference [2]: 1.84 (1.08) T-score | MCCB Speed of Processing: LS Mean (SE) of Change from Baseline [2]: 2.24 (0.80) T-score | MCCB Speed of Processing: Observed Mean (SD) of change from baseline [2]: 2.56 (5.36) T-score | MCCB Verbal Learning: Difference from Placebo LS Mean (SE) of Difference [2]: 0.49 (1.18) T-score | MCCB Verbal Learning: LS Mean (SE) of Change from Baseline [2]: 0.56 (0.88) T-score | MCCB Verbal Learning: Observed Mean (SD) of change from baseline [2]: 0.41 (9.24) T-score | MCCB Visual Learning: Difference from Placebo LS Mean (SE) of Difference [2]: −1.00 (1.65) T-score | MCCB Visual Learning: LS Mean (SE) of Change from Baseline [2]: −1.15 (1.22) T-score | MCCB Visual Learning: Observed Mean (SD) of change from baseline [2]: −1.06 (9.04) T-score | MCCB Working Memory: Difference from Placebo LS Mean (SE) of Difference [2]: 2.39 (1.08) T-score | MCCB Working Memory: LS Mean (SE) of Change from Baseline [2]: 1.88 (0.81) T-score | MCCB Working Memory: Observed Mean (SD) of change from baseline [2]: 1.69 (7.43) T-score | MCCB Attention/Vigilance: Difference from Placebo LS Mean (SE) of Difference [3]: 2.85 (1.57) T-score | MCCB Attention/Vigilance: LS Mean (SE) of Change from Baseline [3]: 0.86 (1.16) T-score | MCCB Attention/Vigilance: Observed Mean (SD) of change from baseline [3]: 0.88 (9.09) T-score | MCCB Social Cognition: Difference from Placebo LS Mean (SE) of Difference [3]: −0.40 (1.61) T-score | MCCB Social Cognition: LS Mean (SE) of Change from Baseline [3]: 0.19 (1.19) T-score | MCCB Social Cognition: Observed Mean (SD) of change from baseline [3]: −0.14 (10.81) T-score | MCCB Speed of Processing: Difference from Placebo LS Mean (SE) of Difference [3]: 0.37 (1.26) T-score | MCCB Speed of Processing: LS Mean (SE) of Change from Baseline [3]: 1.66 (0.93) T-score | MCCB Speed of Processing: Observed Mean (SD) of change from baseline [3]: 1.73 (7.28) T-score | MCCB Verbal Learning: Difference from Placebo LS Mean (SE) of Difference [3]: 1.80 (1.17) T-score | MCCB Verbal Learning: LS Mean (SE) of Change from Baseline [3]: 2.27 (0.87) T-score | MCCB Verbal Learning: Observed Mean (SD) of change from baseline [3]: 2.24 (8.03) T-score | MCCB Visual Learning: Difference from Placebo LS Mean (SE) of Difference [3]: 1.27 (1.68) T-score | MCCB Visual Learning: LS Mean (SE) of Change from Baseline [3]: 0.83 (1.23) T-score | MCCB Visual Learning: Observed Mean (SD) of change from baseline [3]: 1.24 (8.49) T-score | MCCB Working Memory: Difference from Placebo LS Mean (SE) of Difference [3]: 2.03 (1.25) T-score | MCCB Working Memory: LS Mean (SE) of Change from Baseline [3]: 2.14 (0.93) T-score | MCCB Working Memory: Observed Mean (SD) of change from baseline [3]: 1.98 (6.84) T-score | MCCB composite score: LS mean change from baseline (25 mg, baseline to Week 6, MNIRIVI analysis, placebo LS mean +0.49): +1.27 | MCCB domains with LS mean difference versus placebo greater in both dose groups (Week 6, 10 mg and 25 mg): 5 of the 7 MCCB domains | MCCB composite score: statistical significance of difference from placebo (each dose group (10 mg, 25 mg), Week 6): did not reach the level of statistical significance | Effect on cognition (patients with schizophrenia, summary statement): precognitive effects
